Read-outs that look alike come from different tables or passages of the source.
Assays:
CKα1 = target: T1, CKα1 (Homo sapiens, UniProt P35790); test: Choline kinase assay ([methyl-14C]choline into PCho, purified enzyme); type: biochemical; conditions: for IC50: concentration required to inhibit CKα1 enzyme by 50%; for % Inhibition at 10 µM: purified CKα1, inhibitor 10 µM; for % Inhibition at 10 µM / % Inhibition at 30 µM: end-point assay; for % Inhibition at 30 µM: purified CKα1, inhibitor 30 µM
T1 construct: an N-terminally His-tagged truncated form of CKα1 (Δ75–457) was cloned into a pET-28a vector; His tag (N); made in house; host or cells: E. coli BL21 (DE3) Star
T1 sequence (P35790 75-457): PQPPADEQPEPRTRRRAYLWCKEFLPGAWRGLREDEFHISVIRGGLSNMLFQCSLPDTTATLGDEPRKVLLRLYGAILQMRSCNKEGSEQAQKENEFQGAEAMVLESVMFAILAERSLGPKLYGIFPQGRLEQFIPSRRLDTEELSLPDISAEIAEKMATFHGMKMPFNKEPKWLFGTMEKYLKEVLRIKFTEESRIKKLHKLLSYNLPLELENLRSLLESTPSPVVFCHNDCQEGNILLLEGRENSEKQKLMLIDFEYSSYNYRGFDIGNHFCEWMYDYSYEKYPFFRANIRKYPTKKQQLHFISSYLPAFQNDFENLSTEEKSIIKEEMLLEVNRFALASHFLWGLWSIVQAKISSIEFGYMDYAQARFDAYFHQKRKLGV
Description: The protein was produced and purified as previously described. Briefly, an N-terminally His-tagged truncated form of CKα1 (Δ75–457) was cloned into a pET-28a vector and expressed at 37 °C in E. coli BL21 (DE3) Star cells using 1 mM isopropyl β-D-1-thiogalactopyranoside (IPTG). After centrifugation, the cellular pellet was resuspended in 50 mM Tris-HCl pH 7.5, 500 mM NaCl, 0.2 mM phenylmethylsulphonyl fluoride (PMSF), DNase, and 0.5 mM β-mercaptoethanol, sonicated and subjected to a two-step purification procedure to isolate the target enzyme. […] Protein elution was completed using buffer A + 400 mM imidazole. A second size-exclusion chromatography step was then carried out to achieve complete purity. To this end, we used a HiPrep 26/60 Sephacryl 100 HR column (GE Healthcare, Little Chalfont, Buckinghamshire, UK) and a 20 mM Tris/HCl pH 7.5, 150 mM NaCl running buffer.
To study the effect of the compounds on CKα, an in vitro enzymatic assay was performed using the purified enzyme as previously reported in [19, 28, 29]. Briefly, the incorporation of ^14C from [methyl-^14C]choline into PCho in either the absence (control) or presence of different inhibitors at varying concentrations was used to determine the CK activity. The reaction mixture included 20 ng of purified CKα1, 10 mM ATP, 10 mM MgCl2, 100 mM Tris-HCl pH 8.5, and increasing concentrations of compounds. The mixture was preincubated at 37 °C for 5 min. Then, [methyl-^14C]choline chloride (1 mM, 4500 dpm/nmol) was added and the reaction was left to proceed for 10 min at 37 °C. The assay was stopped by immersing the reaction tubes in boiling water. PCho was separated by Thin Layer Chromatography using methanol/0.6% NaCl/28% NH4OH in water (50:50:5, v/v/v) as solvent. The radioactivity associated into PCho was determined in a Beckman 6000-TA (Madrid, Spain) liquid scintillation counter. The 50% inhibitory concentrations (IC50 values) were determined from the % enzyme activity at different concentrations of synthetic inhibitors relative to the control by using a sigmoidal dose–response curve (ED50plus v1.0 software).

MDA-MB-231 = test: Antiproliferative activity, resazurin assay, 72 h; type: cell-based, human
Description: (§1) Human cervix carcinoma (HeLa), Non-small lung adenocarcinoma (A549), Colon adenocarcinoma (HT29), and human triple negative breast cancer (MDA-MB-231) were cultured in Dulbecco’s modified Eagle’s media (DMEM). B-acute lymphoblastic leukemia (RS4;11 and SEM), T-acute lymphoblastic leukemia (Jurkat), and human promyelocytic cells (HL-60), were cultured in RPMI-1640 medium. Both media were purchased from Gibco, Life Technologies (Milan, Italy) and supplemented with 10% Fetal Bovine Serum (FBS, Invitrogen, Milan, Italy,). Every six months, each cell line was checked for the presence of mycoplasma by RT-PCR.
(§2) Stock solutions (10 mM) of the different compounds were made in DMSO. Cancer cells were seeded in tissue-treated, flat bottom, 384-well plates (Corning) according to their optimal density, (A549 1000 cells/wells; MDA-MB-231, HeLa and HT-29 2000 cells/well and finally Jurkat, HL-60 SEM and RS4;11 20.000 cells/well) in 27 µL of complete medium per well.
(§3) The day after cell seeding and immediately before cell treatment, 10 mM stock solutions of the compounds were pre-diluted to a […] concentration in 250 µL of Hank’s in a 96-well plate (Corning). Subsequent 1:5 dilutions were carried out using a microlab STAR 96-CORE liquid handling system (Hamilton), a robotized liquid handling tool that was employed for all steps, from cell seeding to drug dilution and cell treatment to ensure high reproducibility while reducing time for large screening execution. This pre-dilution step was necessary to avoid DMSO-related cytotoxicity and compound precipitation in the cell culture medium. In every case, DMSO concentration never exceeded 0.1%.
(§4) Positive (Bortezomib 1 µM) and negative (0.1% DMSO) controls were included in all the screened plates to allow for monitoring the Z’ factor throughout the entire screening. Cells were treated with 3 µL of the previously made dilutions; thus, generating a 6-point 5-fold dose–response curve starting from 10 µM. Within a plate, each drug concentration was tested in duplicate in two independent experiments for each compound.
(§5) Treated cells were then placed inside the CO2 incubator for 72 h at 37 °C. Cell viability was assessed by resazurin assay, in which 3 µL of resazurin per well were added using the previously described automated platform. Plates were placed in the incubator at 37 °C for 2 h, and then the fluorescence of each plate was read using a Spark 10 M multimode microplate reader (Tecan Group Ltd., Mannedorf, Switzerland) with 535 nm excitation wavelength and 600 nm emission wavelength.

Jurkat = test: Antiproliferative activity, resazurin assay, 72 h; type: cell-based, human
Description: as §1, §2, §3, §4, §5

HT29 = test: Antiproliferative activity, resazurin assay, 72 h; type: cell-based, human
Description: as §1, §2, §3, §4, §5

HeLa = test: Antiproliferative activity, resazurin assay, 72 h; type: cell-based, human
Description: as §1, §2, §3, §4, §5

A549 = test: Antiproliferative activity, resazurin assay, 72 h; type: cell-based, human
Description: as §1, §2, §3, §4, §5

RS 4;11 = test: Antiproliferative activity, resazurin assay, 72 h; type: cell-based, human
Description: as §1, §2, §3, §4, §5

SEM cells = test: Antiproliferative activity, resazurin assay, 72 h; type: cell-based, human
Description: as §1, §2, §3, §4, §5

HL-60 = test: Antiproliferative activity, resazurin assay, 72 h; type: cell-based, human
Description: as §1, §2, §3, §4, §5

| GI50 (MDA-MB-231; Homo sapiens, MDA-MB-231) [nM] | GI50 (Jurkat; Homo sapiens, Jurkat) [nM] | GI50 (HT29; Homo sapiens, HT-29) [nM] | GI50 (HeLa; Homo sapiens, HeLa) [nM] | GI50 (A549; Homo sapiens, A549) [nM] | GI50 (HL-60; Homo sapiens, HL-60) [nM] | inhibition at 5 µM (CKα1; purified CKα1, inhibitor 5 µM, read-out: percentage inhibition at 5 µM) [%] | SMILES | IC50 (CKα1) [nM] | % Inhibition at 10 µM (CKα1) [%] | % Inhibition at 30 µM (CKα1) [%] | GI50 (MDA-MB-231) [nM] | GI50 (Jurkat) [nM] | GI50 (HT29) [nM] | GI50 (HeLa) [nM] | GI50 (A549) [nM] | GI50 (RS 4;11) [nM] | GI50 (SEM cells) [nM] | GI50 (HL-60) [nM] | GI50 (RS 4;11; Homo sapiens, RS4-11) [nM] | GI50 (SEM cells; Homo sapiens) [nM] |
| --- | --- | --- | --- | --- | --- | --- | --- | --- | --- | --- | --- | --- | --- | --- | --- | --- | --- | --- | --- | --- |
|  |  |  |  |  |  |  | [Br-].[Br-].c1cc2c(s1)c(N1CCCCC1)nc[n+]2Cc1ccc(-c2ccc(C[n+]3cnc(N4CCCCC4)c4sccc43)cc2)cc1 [Fa-24] | 2330 ± 210 | 84.64 | 98.40 | 700 ± 70 | > 10000 | > 10000 | 7080 ± 1300 | 1170 ± 200 | > 10000 | > 10000 | 7280 ± 1100 |  |  |
|  |  |  |  |  |  |  | [Br-].[Br-].c1cc2c(N3CCCC3)nc[n+](Cc3ccc(-c4ccc(C[n+]5cnc(N6CCCC6)c6ccsc65)cc4)cc3)c2s1 [Fg-14] | 4870 ± 570 | 80.28 | 94.14 | 940 ± 90 | > 10000 | 4160 ± 1000 | 2530 ± 800 | 280 ± 20 | > 10000 | > 10000 | 1350 ± 100 |  |  |
|  |  |  |  |  |  |  | CN(C)c1cc[n+](Cc2ccc(CCCCc3ccc(C[n+]4ccc(N(C)C)cc4)cc3)cc2)cc1 [MN-48b, reference compound] | 780 ± 30 |  |  | 310 ± 120 | 350 ± 100 | 1900 ± 400 | 1900 ± 100 | 540 ± 200 | 1000 ± 300 |  | 320 ± 30 |  |  |
|  |  |  |  |  |  |  | [Br-].[Br-].c1cc2c(s1)c(N1CCCC1)nc[n+]2Cc1ccc(-c2ccc(C[n+]3cnc(N4CCCC4)c4sccc43)cc2)cc1 [Fa-21] | ≥ 5000 | 74.57 | 86.58 | 1710 ± 400 | > 10000 | > 10000 | > 10000 | 220 ± 10 | > 10000 | > 10000 | 3400 ± 700 |  |  |
|  |  |  |  |  |  |  | [Br-].[Br-].c1cc2c(N3CCCC3)nc[n+](Cc3ccc(CCCCc4ccc(C[n+]5cnc(N6CCCC6)c6ccsc65)cc4)cc3)c2s1 [Ff-3] | ≥ 5000 | 74.17 | 80.09 | 360 ± 30 | 7540 ± 1500 | 1330 ± 10 | 630 ± 20 | 210 ± 20 | 2050 ± 100 | 3700 ± 400 | 210 ± 30 |  |  |
| 170 ± 50 | 410 ± 100 | 400 ± 200 | 830 ± 100 | 450 ± 90 | 930 ± 100 |  | C/[N+](c1ccc(Cl)cc1)=c1\ccn(Cc2ccc(-c3ccc(Cn4cc/c(=[N+](/C)c5ccc(Cl)cc5)c5ccccc54)cc3)cc2)c2ccccc12 [RSM-932A, reference compound] |  |  |  |  |  |  |  |  |  |  |  | 170 ± 40 |  |
|  |  |  |  |  |  |  | [Br-].[Br-].c1cc2c(N3CCCCC3)nc[n+](Cc3ccc(OCCOc4ccc(C[n+]5cnc(N6CCCCC6)c6ccsc65)cc4)cc3)c2s1 [Ff-5] | ≥ 5000 | 64.21 | 85.71 | 1100 ± 200 | > 10000 | 1730 ± 300 | 1030 ± 100 | 340 ± 60 | 2450 ± 20 | 3270 ± 30 | 200 ± 10 |  |  |
|  |  |  |  |  |  |  | CN(c1ccccc1)c1nc[n+](Cc2ccc(-c3ccc(C[n+]4cnc(N(C)c5ccccc5)c5sccc54)cc3)cc2)c2ccsc12 [Fp-1] | 1060 ± 220 |  |  | 900 ± 20 | > 10000 | 1430 ± 30 | 1660 ± 10 | 210 ± 20 | 2120 ± 200 | 4550 ± 500 | 510 ± 50 |  |  |
|  |  |  |  |  |  |  | [Br-].[Br-].c1cc2c(s1)c(N1CCCC1)cc[n+]2Cc1ccc(-c2ccc(C[n+]3ccc(N4CCCC4)c4sccc43)cc2)cc1 [Fg-9] | ≥ 5000 | 75.81 | 94.95 | 2020 ± 200 | > 10000 | > 10000 | > 10000 | 250 ± 20 | > 10000 | > 10000 | 9120 ± 1100 |  |  |
|  |  |  |  |  |  |  | CN(c1ccc(Cl)cc1)c1nc[n+](Cc2ccc(-c3ccc(C[n+]4cnc(N(C)c5ccc(Cl)cc5)c5ccsc54)cc3)cc2)c2sccc12 [Fp-8] |  |  |  | 830 ± 40 | > 10000 | 3930 ± 500 | 1770 ± 100 | 160 ± 10 | 3380 ± 50 | > 10000 | 900 ± 80 |  |  |
|  |  |  |  |  |  |  | [Br-].[Br-].c1cc2c(s1)c(N1CCCC1)nc[n+]2Cc1ccc(OCCOc2ccc(C[n+]3cnc(N4CCCC4)c4sccc43)cc2)cc1 [Ff-8] |  | 79.23 | 92.88 | 320 ± 50 | > 10000 | 1890 ± 200 | 910 ± 90 | 290 ± 300 | 3470 ± 300 | > 10000 | 550 ± 20 |  |  |
| 500 ± 20 | 5230 ± 800 | 1090 ± 200 | 840 ± 40 | 140 ± 20 | 550 ± 20 | 85 | c1cc2c(s1)c(N1CCCCCC1)nc[n+]2Cc1ccc(CCCCc2ccc(C[n+]3cnc(N4CCCCCC4)c4sccc43)cc2)cc1 [Fa-29] | 1080 ± 70 |  |  |  |  |  |  |  |  |  |  | 1600 ± 100 | 1770 ± 200 |
|  |  |  |  |  |  |  | [Br-].[Br-].c1cc2c(N3CCCCCC3)nc[n+](Cc3ccc(CCCCc4ccc(C[n+]5cnc(N6CCCCCC6)c6ccsc65)cc4)cc3)c2s1 [Ff-35, ((1,1′-((butane-1,4-diylbis(4,1-phenylene))bis(methylene))bis(4-(azepan-1-yl)thieno[2,3-d]pyrimidin-1-ium)) bromide] | 460 ± 80 |  |  | 97 ± 1 | 1540 ± 20 | 780 ± 30 | 300 ± 10 | 140 ± 20 | 950 ± 50 | 760 ± 30 | 150 ± 10 |  |  |
|  |  |  |  |  |  |  | [Br-].[Br-].c1cc2c(s1)c(N1CCCC1)cc[n+]2Cc1ccc(CCc2ccc(C[n+]3ccc(N4CCCC4)c4sccc43)cc2)cc1 [Fg-11] | 2330 ± 200 | 93.07 | 94.25 | 680 ± 70 | 8530 ± 1100 | 3650 ± 500 | 2190 ± 300 | 390 ± 40 | 5720 ± 500 | > 10000 | 470 ± 30 |  |  |
|  |  |  |  |  |  |  | [Br-].[Br-].c1cc2c(N3CCCCC3)nc[n+](Cc3ccc(-c4ccc(C[n+]5cnc(N6CCCCC6)c6ccsc65)cc4)cc3)c2s1 [Fg-30] | ≥ 5000 | 75.46 | 85.71 | 800 ± 20 | > 10000 | 8320 ± 900 | 2890 ± 300 | 600 ± 20 | > 10000 | > 10000 |  |  |  |
